Experimental data as given in patent US3969530A, “4-Hydroxy-3,5-di-alkyl-phenyl-propionic acid composition suitable as lipid lowering and anti-diabetic agents” (Hoechst Aktiengesellschaft, priority 1972, dated 1976).

What was measured:
[1] = test system: serum lipid concentration; assay: Dietetic-medicamentous hyperlipemia (hypercholesteremia) of male rats (Table 2); format: in vivo; conditions: 100 mg/kg/day, 8 doses, esophagal sound; hyperlipemic diet
Description: 2. Dietetic-medicamentous hypercholesteremia of male rats
All the animals were fed with a diet food containing 2% of cholesterol, 2% of sodium cholate, 0.3% of methyl-thio-uracil, 20% of coco fat and 44% of cane sugar. The serum lipid concentration of the animals treated with the cited compounds was compared to that of an untreated control group being on the same diet which causes the serum cholesteral concentration to rise within one week to about 10 times the initial value, that of the serum triglycerides to 3 times and that of the phospholipids in the serum to 4 times the initial value. The lipid phosphorus was determined according to the method of Messrs. Boehringer Mannheim W. Germany. At the same time as the diet was offered the cited compounds were administered once a day to groups of rats, each containing 10 animals, over a period of 8 days by means of an esophagal sound. The change in percentage in the serum lipid concentration as compared to the control group (diet without active substance) is indicated in Table 2.

[2] = in vivo; conditions: mouse, po, male mice
[3] = test system: serum lipid values; assay: Reduction of serum lipid values in normolipemic rats (Table 1); format: in vivo, male rats; conditions: 8 doses; for Change in percentage of serum cholesterol, column A / Change in percentage of serum triglyceride, column A: A: referred to the initial value of the treated group; for Change in percentage of serum cholesterol, column B / Change in percentage of serum triglyceride, column B: B: referred to untreated control group
Method: 1. Male rats having a normal serum lipid content were being treated for eight days with different daily doses mentioned in Table 1. The values given in that Table stand for a change in the serum concentrations of certain lipid classes.
The doses were administered per os by means of an esophagal sound. Generally, prior to and after the treatment, blood samples were taken and the concentration of cholesterol in the serum was determined according to the method of Lauber and Richterich and that of triglycerides according to the method of Eggstein and Kreutz. In the examples of the following Table 1, the changes in the serum lipid values due to the treatment with the substances of the invention are defined as follows:
a. The changes in percent in the final value of the treated group, referred to the initial value of the treated group, the initial value being 100 per cent, and
b. the change in the final value of the treated group, referred to the final value of an accompanying untreated control group, the untreated group's value being defined as 100 %. Thus, the value given in columns A is the change in percentage referred to the initial value, the value given in columns B is the change in percentage of the treated group, referred to the untreated control group.

[4] = test system: blood sugar level; assay: Blood sugar level in alloxan-diabetic male rats; format: in vivo; conditions: 100 mg/kg/day per os, 8 days, 20 hours after the last administration, vs untreated group; insulin-substituted
Method: (§1) The hypoglycemic activity had been established as follows, the blood sugar level having been determined by means of an autoanalyzer:
1. On alloxan-diabetic male rats substituted with insulin before the beginning of the test, that were offered food ad libitum, 100 mg/kg/day of 4-hydroxy-3,5-di-t.-butyl-phenylpropionic acid n-octadecyl ester administered per os once a day during 8 successive days lowered the blood sugar level 20 hours after the last administration by -18% as compared with an untreated group.

[5] = test system: blood sugar level; assay: Blood sugar level in male rats fed fructose doses; format: in vivo; conditions: 100 mg/kg/day, 3 days pretreatment, 24 hours after the last administration; fructose doses per os
Method: as §1
In the case of male rats having been feed fructose doses per os and pretreated for 3 days with 100 mg/kg/day of the same compound, the blood sugar level was lowered by -17% 24 hours after the last administration.

[6] = test system: blood sugar level; assay: Tolerance test with oral glucose in fasted male rats; format: in vivo
Method: as §1
2. In the tolerance test with glucose doses administered per os to male rats that had fasted for 22 hours and that were administered 19 and 3 hours before the glucose administration (1g/kg) per os 100 mg/kg of the test preparation, 4-hydroxy-3,5-di-t.-butyl-phenyl-propionic acid n-octadecyl ester caused a lowering of the blood sugar level by -21% 3 hours after being fed with glucose.

Structure (SMILES)	Change in percentage of serum cholesterol referred to the untreated group [1]	LD50 [2]	Change in percentage of serum cholesterol, column A ([3]; 30 mg/kg/day p.o.)	Change in percentage of serum triglyceride, column A ([3]; 30 mg/kg/day p.o.)	Change in percentage of serum cholesterol, column B ([3]; 30 mg/kg/day p.o.)	Change in percentage of serum triglyceride, column B ([3]; 30 mg/kg/day p.o.)	Change in percentage of serum triglyceride, column A ([3]; 10 mg/kg/day p.o.)	Change in percentage of serum triglyceride, column B ([3]; 10 mg/kg/day p.o.)	Change in percentage of serum triglyceride, column A ([3]; 100 mg/kg/day p.o.)	Change in percentage of serum cholesterol, column B ([3]; 100 mg/kg/day p.o.)	Change in percentage of serum triglyceride, column B ([3]; 100 mg/kg/day p.o.)	lowering of the blood sugar level [4]	lowering of the blood sugar level [5]	lowering of the blood sugar level ([6]; 100 mg/kg per os 19 and 3 hours before glucose (1g/kg), 3 hours after glucose, fasted 22 hours)	lowering of the blood sugar level compared with phenformin ([6]; 100 mg/kg per os, comparison preparation phenformin)	Change in percentage of serum cholesterol, column A ([3]; 100 mg/kg/day p.o.)
CCOC(=O)C(C)(C)Oc1ccc(Cl)cc1 [Clofibrat, reference compound]	0%	2000 to 2500 mg/kg	-7%	+4%	-7%	-13%										
CC(C)(C)c1cc(CCC(=O)O)cc(C(C)(C)C)c1O [Example 2, 4-hydroxy-3,5-di-t.-butyl-phenyl-propionic acid]				-23%		-38%	-21%	-26%	-32%	-12%	-38%					
CCCCCCCCCCCCCCCCCCOC(=O)CCc1cc(C(C)(C)C)c(O)c(C(C)(C)C)c1 [Example 3, 4-hydroxy-3,5-di-t.-butyl-phenyl-propionic acid-n-octadecyl ester]		8000 mg/kg				-25%			-33%		-16%	-18%	-17%	-21%	in the same order of magnitude as that obtained with the comparison preparation phenformin	
COC(=O)CCc1cc(C(C)(C)C)c(O)c(C(C)(C)C)c1 [Example 5, 4-hydroxy-3,5-di-t.-butylphenyl-propionic acid methyl ester]						-42%		-3%	-60%		-71%					-3%
CCCCOC(=O)CCc1cc(C(C)(C)C)c(O)c(C(C)(C)C)c1 [Example 6, 4-hydroxy-3,5-di-t.-butylphenyl-propionic acid-n-butyl ester]						-27%		-17%	-54%		-58%					-10%
CC(C)(C)c1cc(CCC(=O)OCC(COC(=O)CCc2cc(C(C)(C)C)c(O)c(C(C)(C)C)c2)(COC(=O)CCc2cc(C(C)(C)C)c(O)c(C(C)(C)C)c2)COC(=O)CCc2cc(C(C)(C)C)c(O)c(C(C)(C)C)c2)cc(C(C)(C)C)c1O [Example 7, Tetra-(4-hydroxy-3,5-di-t.-butylphenyl-propionic acid)-pentaerythritol ester]						-27%				-7%	-17%					-5%
